Laboratory results from patent US12202835B2, “Substituted aromatic ring-linked dioxinoquinazolines and dioxinoquinolines as kinase inhibitors” (BEIJING SCITECH-MQ PHARMACEUTICALS LIMITED, priority 2018, dated 2025).

Key:
VEGFR-2 kinase = VEGFR-2 kinase (Homo sapiens (Human), UniProt P35968); experiment: Assay of small molecular compounds for inhibiting the activity of VEGFR-2 kinase (LANCE TR-FRET); format: biochemical; conditions: read-out: VEGFR2 IC50
In short: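 LANCE TR-FRET with human VEGFR-2 (2× stock 0.5 nM) preincubated 30 min with compound (final 2500 to 0.042 nM, 11-point 3-fold), then ULight-JAK-1 (Tyr1023) peptide/ATP added (4× stocks 200 nM/40 μM). Reaction 60 min room temperature, 4% DMSO; IC50 from inhibition-rate curve.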

Ba/F3-AXL cells = experiment: Assay for inhibiting the proliferation of Ba/F3-AXL cells (CCK-8); format: cell-based; conditions: 72 hours of incubation, medium with 100 ng/mL hGas6, CCK-8
Experimental: The values were then imported into Graphpad Prism 5 software for curve fitting, and IC50 was calculated.

MER kinase = MER kinase (Homo sapiens (Human), UniProt Q12866); experiment: Assay of small molecular compounds for inhibiting the activity of MER kinase (LANCE TR-FRET); format: biochemical
Sequence of MER kinase (Q12866 21-999): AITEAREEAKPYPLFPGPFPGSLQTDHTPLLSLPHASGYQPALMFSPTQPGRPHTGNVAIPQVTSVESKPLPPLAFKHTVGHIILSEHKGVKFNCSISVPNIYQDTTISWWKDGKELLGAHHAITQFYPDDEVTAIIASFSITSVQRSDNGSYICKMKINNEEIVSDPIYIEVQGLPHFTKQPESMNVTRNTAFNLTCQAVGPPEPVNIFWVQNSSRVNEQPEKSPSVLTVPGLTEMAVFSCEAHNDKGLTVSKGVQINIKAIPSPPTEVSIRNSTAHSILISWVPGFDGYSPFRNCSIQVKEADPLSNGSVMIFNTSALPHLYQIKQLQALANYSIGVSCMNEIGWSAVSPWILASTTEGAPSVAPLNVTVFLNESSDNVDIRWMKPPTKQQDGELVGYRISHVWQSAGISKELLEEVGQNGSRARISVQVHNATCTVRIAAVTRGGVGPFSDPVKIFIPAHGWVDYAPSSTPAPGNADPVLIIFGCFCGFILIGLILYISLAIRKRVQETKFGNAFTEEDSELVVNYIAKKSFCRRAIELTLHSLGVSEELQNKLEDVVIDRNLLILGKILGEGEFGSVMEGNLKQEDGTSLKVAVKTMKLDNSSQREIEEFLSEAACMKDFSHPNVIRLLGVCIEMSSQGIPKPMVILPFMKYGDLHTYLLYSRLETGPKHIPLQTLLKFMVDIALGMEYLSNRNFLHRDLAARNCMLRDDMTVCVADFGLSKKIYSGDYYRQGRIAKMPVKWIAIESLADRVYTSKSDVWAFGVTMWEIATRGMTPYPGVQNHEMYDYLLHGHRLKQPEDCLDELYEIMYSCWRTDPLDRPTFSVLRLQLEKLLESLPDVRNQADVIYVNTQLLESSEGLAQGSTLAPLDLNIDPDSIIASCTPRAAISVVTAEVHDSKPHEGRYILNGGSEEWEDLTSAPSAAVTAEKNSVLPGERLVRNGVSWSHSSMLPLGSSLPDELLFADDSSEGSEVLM
In short: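 LANCE TR-FRET readout of ULight-poly GT phosphorylation by MER kinase; compound final range 0.042-2500 nM, 3-fold steps, 5 min enzyme preincubation. Reaction 60 min at room temperature in the dark with substrate/ATP (4× at 200 nM/20 μM), 1% DMSO, then stopped and developed 60 min; IC50 by curve fit.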

Sequence of VEGFR-2 kinase (P35968 20-1356): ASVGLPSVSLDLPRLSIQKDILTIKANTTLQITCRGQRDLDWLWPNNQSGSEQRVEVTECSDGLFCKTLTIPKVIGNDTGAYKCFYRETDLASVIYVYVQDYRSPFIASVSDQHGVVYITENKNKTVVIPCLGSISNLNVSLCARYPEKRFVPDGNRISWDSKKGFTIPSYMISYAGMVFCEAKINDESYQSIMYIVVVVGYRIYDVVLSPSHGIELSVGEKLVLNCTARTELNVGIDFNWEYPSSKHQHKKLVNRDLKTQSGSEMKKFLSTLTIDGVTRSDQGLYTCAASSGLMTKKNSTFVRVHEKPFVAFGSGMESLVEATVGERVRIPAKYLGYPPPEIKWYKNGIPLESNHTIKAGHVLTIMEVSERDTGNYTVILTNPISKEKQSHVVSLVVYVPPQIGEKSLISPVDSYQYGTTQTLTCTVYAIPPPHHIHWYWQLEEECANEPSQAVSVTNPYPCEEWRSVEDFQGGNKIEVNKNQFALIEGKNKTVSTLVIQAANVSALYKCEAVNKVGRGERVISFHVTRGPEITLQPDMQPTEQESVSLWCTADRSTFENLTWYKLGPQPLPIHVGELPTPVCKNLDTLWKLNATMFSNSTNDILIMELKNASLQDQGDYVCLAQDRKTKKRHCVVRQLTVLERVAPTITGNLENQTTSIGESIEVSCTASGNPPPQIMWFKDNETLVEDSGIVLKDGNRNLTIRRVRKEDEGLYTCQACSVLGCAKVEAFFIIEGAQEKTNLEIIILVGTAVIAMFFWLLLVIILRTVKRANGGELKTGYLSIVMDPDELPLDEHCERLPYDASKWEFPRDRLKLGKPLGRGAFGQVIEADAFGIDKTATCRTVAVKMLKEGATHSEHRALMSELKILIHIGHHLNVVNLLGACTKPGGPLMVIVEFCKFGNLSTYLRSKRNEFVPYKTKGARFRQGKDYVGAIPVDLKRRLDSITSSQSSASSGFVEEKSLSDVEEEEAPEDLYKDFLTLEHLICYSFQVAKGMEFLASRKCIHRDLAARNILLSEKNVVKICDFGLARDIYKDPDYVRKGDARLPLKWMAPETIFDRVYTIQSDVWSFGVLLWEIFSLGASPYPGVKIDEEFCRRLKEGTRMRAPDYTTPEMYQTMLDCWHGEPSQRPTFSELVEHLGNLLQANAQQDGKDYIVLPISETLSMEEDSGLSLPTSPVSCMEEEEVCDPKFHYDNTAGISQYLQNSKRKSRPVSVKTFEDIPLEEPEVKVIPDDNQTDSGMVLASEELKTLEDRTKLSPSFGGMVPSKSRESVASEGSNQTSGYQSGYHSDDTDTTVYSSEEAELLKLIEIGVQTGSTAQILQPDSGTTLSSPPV

| Structure (SMILES) | IC50 (VEGFR-2 kinase) | IC50 (Ba/F3-AXL cells) | IC50 (MER kinase) |
| --- | --- | --- | --- |
| CCOc1ccn(-c2ccc(F)cc2)c(=O)c1C(=O)Nc1cc(F)c(Oc2ccnc3cc(OC)c4c(c23)OCCO4)cc1Cl [Example 115, N-(2-chloro-5-fluoro-4-((5-methoxy-2,3-dihydro-[1,4]dioxino[2,3-f]quinolin-10-yl)oxy)phenyl)-4-ethoxy-2-oxo-1-(4-fluorophenyl)-1,2-dihydropyridin-3-carboxamide] | 500 to 5000 nM | < 50 nM | ≤ 50 nM |
| COc1cc2nccc(Oc3cc(Cl)c(NC(=O)c4cn(C)c(=O)n(-c5ccc(F)cc5)c4=O)cc3F)c2c2c1OCCO2 [Example 116, N-(2-chloro-5-fluoro-4-((5-methoxy-2,3-dihydro-[1,4]dioxino[2,3-f]quinolin-10-yl)oxy)phenyl)-3-(4-fluorophenyl)-1-methyl-2,4-dioxo-1,2,3,4-tetrahydropyrimidine-5-carboxamide] | > 5000 nM | < 50 nM | ≤ 50 nM |
| CCOc1ccn(Cc2ccccc2)c(=O)c1C(=O)Nc1ccc(Oc2ccnc3cc(OC)c4c(c23)OCCO4)c(F)c1 [Example 117, N-(3-fluoro-4-((5-methoxy-2,3-dihydro-[1,4]dioxino[2,3-f]quinolin-10-yl)oxy)phenyl)-2-oxo-4-ethoxy-1-benzyl-1,2-dihydropyridin-3-carboxamide] | 500 to 5000 nM | < 50 nM | ≤ 50 nM |
| CC(C)n1cc(C(=O)Nc2ccc(Oc3ccnc4cc(OCC(C)(C)O)c5c(c34)OCCO5)c(F)c2)c(=O)n(-c2ccc(F)cc2)c1=O [Example 122, N-(3-fluoro-4-((5-(2-hydroxy-2-methylpropoxy)-2,3-dihydro-[1,4]dioxino[2,3-f]quinolin-10-yl)oxy)phenyl)-3-(4-fluorophenyl)-1-isopropyl-2,4-dioxo-1,2,3,4-tetrahydropyrimidine-5-carboxamide] | 500 to 5000 nM | < 50 nM | ≤ 50 nM |
| COc1ccn(-c2ccc(F)cc2)c(=O)c1C(=O)Nc1ccc(Oc2ccnc3cc(OCCCC#N)c4c(c23)OCCO4)cc1Cl [Example 132, N-(2-chloro-4-((5-(3-cyanopropoxy)-2,3-dihydro-[1,4]dioxino[2,3-f]quinolin-10-yl)oxy)phenyl)-1-(4-fluorophenyl)-4-methoxy-2-oxo-1,2-dihydropyridine-3-carboxamide] | 500 to 5000 nM | < 50 nM | ≤ 50 nM |

More lines, now with the values ahead:

| IC50 (VEGFR-2 kinase) | IC50 (Ba/F3-AXL cells) | IC50 (MER kinase) | Structure (SMILES) |
| --- | --- | --- | --- |
| 50 to 500 nM | < 50 nM | ≤ 50 nM | CCOc1ccn(-c2ccc(F)cc2)c(=O)c1C(=O)Nc1ccc(Oc2ccnc3cc(OCC(C)(C)O)c4c(c23)OCCO4)c(F)c1 [Example 120, N-(3-fluoro-4-((5-(2-hydroxy-2-methylpropoxy)-2,3-dihydro-[1,4]dioxino[2,3-f]quinolin-10-yl)oxy)phenyl)-4-ethoxy-1-(4-fluorophenyl)-2-oxo-1,2-dihydropyridine-3-carboxamide] |
| 500 to 5000 nM | < 50 nM | ≤ 50 nM | Cn1cc(C(=O)Nc2ccc(Oc3ccnc4cc(OCC(C)(C)O)c5c(c34)OCCO5)c(F)c2)c(=O)n(-c2ccc(F)cc2)c1=O [Example 121, N-(3-fluoro-4-((5-(2-hydroxy-2-methylpropoxy)-2,3-dihydro-[1,4]dioxino[2,3-f]quinolin-10-yl)oxy)phenyl)-3-(4-fluorophenyl)-1-methyl-2,4-dioxo-1,2,3,4-tetrahydropyrimidine-5-carboxamide] |
| 50 to 500 nM | < 50 nM | ≤ 50 nM | CCOc1ccn(-c2ccc(F)cc2)c(=O)c1C(=O)Nc1ccc(Oc2ccnc3cc(OC)c4c(c23)OCCO4)cc1Cl [Example 126, N-(2-chloro-4-((5-methoxy-2,3-dihydro-[1,4]dioxino[2,3-f]quinolin-10-yl)oxy)phenyl)-1-(4-fluorophenyl)-4-ethoxy-2-oxo-1,2-dihydropyridine-3-carboxamide] |
